Laboratory results as given in patent US20260237072A1, “FUNCTIONAL RESPIRATORY IMAGING ANALYSIS OF SERALUTINIB FOR THE TREATMENT OF PULMONARY ARTERIAL HYPERTENSION (PAH)” (GB002, INC., priority 2023, published 2026).
Values joined by “and” are separate entries in the source; they are usually repeats but may differ in a detail not shown here. Equal values may be shown once.

Tests used:
PAH patients [1] = assay: Clinical study: change from baseline to week 24 in clinical parameters (PVR, MPAP, PAC, 6MWD, NTproBNP); assay type: in vivo, human; set-up: MPAP Change / 6MWD change / NTproBNP change: unit not given here
Method: (§1) A clinical study was undertaken to examine the effect of Seralutinib on pulmonary arterial blood vessel volume distribution in PAH patients. Seralutinib was administered twice daily (BID) for 24 weeks, via dry powder inhalation, to PAH patients (WHO Group I, functional class II or III). Thin-section, volumetric non-contrast chest CTs were obtained (at baseline and week 24, minimum of 64 slices), followed by automated pulmonary vascular segmentation to evaluate the reverse remodeling potential of seralutinib.
(§2) Baseline and Week 24 CTs were obtained in 19 subjects (7 receiving seralutinib, 12 receiving placebo), mean age 49±12 years, 18 were female, as presented in Tables 1 and 2. All subjects were receiving two or three approved PAH-specific medications.
(§3) Case study 2 was of a person with WHO functional class II idiopathic PAH+severe rheumatoid arthritis receiving approved PAH Triple Therapy (ERA+PDE-5i+PRA).

PAH patients [2] = assay: Clinical study: functional respiratory imaging (chest CT, automated pulmonary vascular segmentation) of pulmonary arterial blood vessel volume distribution; assay type: in vivo, human
Method: as §1
From the scans, paired inspiratory-expiratory high-resolution non-contrast computer tomography studies were performed and the lobar tissue, airways and vasculature were reconstructed. Vasculature volumes are provided as a total blood volume (BV), and as BVX values, which divide the pulmonary blood volume depending on the size vessel in which the blood is contained, wherein:
Blood vessel volumes (BVV) of pulmonary arteries with a CSA<5 mm^2 (BV5A) and >10 mm^2 (BV10A) were calculated, and the BV5A to BV10A ratio (BV510ARATIO) was used to express relative redistribution of pulmonary arterial blood vessel volume. Linear regression was used to model the treatment effect.
as §2, §3

[3] = individual PAH patient, baseline to week 24, BID dry powder inhalation
[4] = Case Study 2, baseline to week 24, lung images
[5] = treatment effect vs placebo, week 24, linear regression

## COc1ccc(-c2cncc(N[C@@H](C)c3cccc(NC(=O)c4cncc(C)c4)c3)n2)cc1OC [Seralutinib, N-{3-[(1S)-1-{[6-(3,4-dimethoxyphenyl)pyrazin-2-yl]amino}ethyl]phenyl}-5-methylpyridine-3-carboxamide]
PAH patients [1]; Case Study 2, baseline to week 24
  PVR coincident with arterial volume shifts: Improvement
PAH patients [1]; Case Study 2, week 24
  6MWD change: −48
  NTproBNP change: 41
PAH patients [1]; Case Study 2, week 24, PVR baseline 408
  PVR Change: −159
PAH patients [1]; [3]
  MPAP Change: −4 and −3 (2×) and −8 and 3 and −2
  PAC Change (pulmonary arterial compliance): 0.65 and 0.24 and 0.85 and 0.31 and 0.11 and 0.32
  PVR Change: −159 and −11 and −52 and −235 and −139 and −171
PAH patients [2]; [4]
  BV5A/BV10A ratio: Increase
  Decrease in BV10APRA: 8%
  Increase in BV5APRA: 6%
PAH patients [2]; Case Study 2, week 24
  BV5A PRA (%)*: +5.6%
  BV10A PRA (%)*: −7.7%
  BV510A RATIO: +2.5
PAH patients [2]; subjects with PAH on dual or triple PAH therapies, seralutinib added
  redistribution of pulmonary arterial blood vessel volume to more distal vessels: significant redistribution
PAH patients [2]; [5]
  BV5APRA regression model effect estimate: 2.625
  BV5PR regression model effect estimate: 1.835
  BV10APRA regression model effect estimate: −2.711
  BV10PR regression model effect estimate: −2.180
  BV510RATIO regression model effect estimate: 0.843
PAH patients [2]; treatment effect vs placebo, week 24, linear regression, 7 seralutinib, 12 placebo
  BV510ARATIO regression model effect estimate: 0.845
PAH patients [2]; vs placebo, 95% CI 0.105, 1.585, p-value 0.028
  least squares mean difference value of the BV510ARatio: 0.845
PAH patients [2]; week 24, p=0.028
  BV510A Ratio in the seralutinib group compared to placebo: significantly higher
